Results on five molecules are retold here after patent US9957295B2, “Peptides inhibiting cold-inducible RNA binding protein activity” (The Feinstein Institute for Medical Research, priority 2013, dated 2018).

For one experiment, the target named is T1, rhMD2 (Homo sapiens, UniProt Q9Y6Y9).
T1 construct: Glu17-Asn160); 10-His (C); purchased R&D Systems; host or cells: E. coli
T1 sequence (Q9Y6Y9 17-160): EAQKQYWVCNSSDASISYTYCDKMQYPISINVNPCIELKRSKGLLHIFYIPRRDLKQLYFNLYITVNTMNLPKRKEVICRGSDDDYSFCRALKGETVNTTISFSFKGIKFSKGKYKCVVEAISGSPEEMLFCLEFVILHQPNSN
The experiment is described as follows: SPR binding to immobilized rhMD2. The note with it: oligopeptides passed over immobilized rhMD2. How it is done: Analysis of protein-protein and peptide-protein interactions were conducted using the BIAcore T200 instrument (GE Healthcare). Binding reactions were performed in 1×PBS buffer containing 0.01% Tween-20 (pH 7.4). The CM5 dextran chip (flow cell-2) was first activated by injection with 89 μl of 0.1 M […] and 0.1 M N-hydroxysuccinimide. An aliquot of 200 μl of 5 μg/ml of the ligand diluted in 10 mM sodium acetate (pH 4.5) was injected into flow cell-2 of the CM5 chip for immobilization. Next, 135 μl of 1 M ethanolamine (pH 8.2) was then injected to block the remaining active sites. The flow cell-1 without coating with the ligand was used as a control to evaluate nonspecific binding. The binding analyses were performed at flow rate of 30 μl/min at 25° C. To evaluate the binding, the analyte (ranging from 62.5 nM to 1.0 μM for kinetics analysis or 0.5 μM for yes/no binding analysis) was injected into flow cell-1 and -2 and the association of analyte and ligand was recorded respectively by surface plasmon resonance. The signal from the blank channel (flow cell-1) was subtracted from the channel (flow-cell 2) coated with the ligand. Data were analyzed by the BIAcore T200 Evaluation Software. For all samples, a blank injection with buffer alone was subtracted from the resulting reaction surface data. Data were globally fitted to the Lagmuir model for a 1:1 binding.
Surface plasmon resonance (SPR) analysis was utilized to determine the physical interaction and binding affinity between rhCIRP and pattern-recognition receptors and MD2. […] The sensorgrams show association and dissociation of analyte at the indicated concentration passed over to the immobilized ligand on the sensor chip, indicated as analyte/ligand on top of each diagram. […] The region of CIRP that binds to MD2 was determined via the synthesis of 32 oligopeptides (15-mer) covering the entire human CIRP sequence. The oligopeptides were passed over immobilized rhMD2 on the BIAcore instrument, followed by subsequent performance of a series of SPR analyses. Three oligopeptides with high binding affinity were indicated. […] Three oligopeptides, aa 101-115, 106-120 (C22), and 111-125 (C23) bound to rhMD2 with high affinity (FIG. 14 and FIG. 19).
For orientation: Surface plasmon resonance follows binding to a sensor surface in real time, without labels.

Experiment [1] concerns LPS-induced TNF-α production in differentiated THP-1 cells. The experiment is described as follows: Peptide inhibition of LPS-induced TNF-α production in differentiated THP-1 cells (ELISA). Format: cell-based, human. How it is done:
Human monocytic THP-1 cells (American Type Culture Collection, Manassas, Va.), were seeded in suspension into T75 tissue culture flask at a density of 1.5×10^6 cells and cultured with RPMI-1640 medium supplemented with 10% heat-inactivated fetal bovine serum, 1% penicillin/streptomycin, 2 mM glutamine and additional 0.05 mM β-mercaptoethanol at 37° C. in a humidified incubator with 5% CO2.
Cells were plated at a density of 5×10^4 per well in 96-well tissue culture plate and incubated with phorbol 12-myristate 13-acetate (20 ng/ml) for 48 h to become differentiated macrophages-like cells before experiment. Cells were used between passages 5 and 12. Cells were pretreated with indicated concentrations of CIRP-derived peptides C22 (SEQ ID NO: 13) or C23 (SEQ ID NO: 12) for 1 h, and then incubated in the absence or presence rmCIRP or LPS (from E. coli O111:B4, Sigma St. Louis, Mo.) with Opti-MEM-medium for 6 h. The cell-free supernatants were assayed for TNF-α by ELISA.
Supernatants were measured for TNF-α levels using a commercially available enzyme-linked immunosorbent assay (ELISA) kits-human TNF-α set (BioSource International, Camarillo, Calif.) according to the manufacturer's instruction.
The CIRP-derived peptides were also found to modulate LPS-induced TNF-α release in differentiated THP-1 cells. […] The doses of C22 or C23 at 2 ng/ml, equivalent to 1.3 pmol/ml and LPS at 10 ng/ml, equivalent to 0.67 pmol/ml, peptides and LPS molar ratios at 2:1 were used to treat cells.
On the technique in general: In an ELISA, binding on a coated surface is turned into a signal by an enzyme label.

Experiment [2] deals with MLVEC stimulated with rmCIRP. Nature of the experiment: rmCIRP-stimulated mouse lung vascular endothelial cells (MLVEC). The class given is cell-based. The note with it: C23 200 ng/ml. How it is done: MLVEC were treated with rmCIRP in the presence of C23 or non-specific oligopeptide P5 (negative control) for 4 hours. Cells were harvested, lysed and the cell lysate analyzed by SDS-PAGE and Western blotting (immunodetection). Referring to FIG. 23A, ICAM-1 expression is abrogated in the presence of 200 ng/ml of the oligopeptide C23.
Similarly, the release of IL-1beta by MLVEC stimulated by rmCIRP was blocked (as determined by ELISA) when 200 ng/ml of the oligopeptide C23 was added to the media, as shown in FIG. 23B. (For FIGS. 23A and 23B: Mean+/−SD, n=3, *P<0.05 vs. groups without C23.)

Another experiment has as its system mice subjected to CLP. The experiment is described as follows: Mouse CLP sepsis, markers 24 hours post-CLP. Format: in vivo. The note with it: 8 mg/kg 2 hours after CLP. How it is done: Mice subjected to CLP were treated 2 hours later with the oligopeptide C23 (8 mg/kg) or saline.
In FIGS. 23A through 23C: Mean+/−SD; n=4-8/group; *P<0.05 vs. sham, #P<0.05 vs. vehicle, one-way ANOVA. mRNA amounts are measured by qPCR; protein levels are measured by ELISA.

The subject of another experiment is septic mice (CLP). The experiment is described as follows: Mouse CLP severe sepsis survival study. Format: in vivo. How it is done: Mice were subjected to CLP and treated immediately after operation with the antibiotic imipenem ([…] BW) and resuscitative fluid. At 2 hours after CLP, mice were administered C23 (8 mg/kg BW) or an equivalent volume of normal saline (vehicle) via the internal jugular vein. Survival was then assessed every 12 hours.

A further experiment deals with THP-1 cells. Nature of the experiment: TNF-α release from differentiated THP-1 cells stimulated with recombinant proteins. Format: cell-based, human. The note with it: 0.3 μg/ml each protein, 8 h, ELISA. How it is done:
As with the murine model, the stimulation of TNF-α, release by rCIRP in a human model was studied. […] These experiments were conducted by incubating differentiated human THP-1 cells with rhCIRP or rmCIRP at the indicated concentrations for 4 h. *P<0.05 vs. no CIRP. Similarly, human PBMC were incubated with the indicated concentrations of rhCIRP for 8 h. *P<0.05 vs. no rhCIRP. Thus, stimulation of cytokine release by CIRP was not attributable to LPS contamination. Furthermore, CIRP-induced cytokine activation was conserved between rodents and humans.
rmCIRP induced TNF-α and HMGB1 release in macrophages (FIGS. 10a, b and c). It was reported that HMGB1 can also stimulate TNF-α release (Andersson, U., et al. High mobility group 1 protein (HMG-1) stimulates proinflammatory cytokine synthesis in human monocytes. J. Exp. Med. 192, 565-570 (2000)). The relationship between CIRP and HMGB1 on stimulating TNF-α release was analyzed by applying respective neutralizing antibodies. […] After 4 h, TNF-α levels in conditioned medium (CM) were assayed by ELISA. Data are mean±s.e.m. from three independent experiments. *P<0.05 vs. rmCIRP+ control IgG. In FIG. 16D, RAW 264.7 cells were pre-incubated with rabbit control IgG or anti-CIRP antibodies at indicated dilutions of 1 mg/ml for 20 min before adding 1.0 μg/ml rmCIRP. After 4 h, TNF-α levels in CM were assayed by ELISA. Data are mean±s.e.m. from three independent experiments. *P<0.05 vs. rmCIRP+ control IgG. THP-1 cells were incubated with 4 μg/ml of anti-CIRP antibodies, anti-HMGB1 antibodies, or non-immunized control IgG for 1 h prior to adding rmCIRP (0.3 μg/ml), rmHMGB1 (0.3 μg/ml), or rmCIRP/rmHMGB1 (0.3 μg/ml, 0.3 μg/ml) for 8 h. *P<0.05 vs. rmCIRP; #P<0.05 vs. rmHMGB1. […] Furthermore, rmCIRP, rmHMGB1, and rmCIRP plus rmHMGB1 induced TNF-α levels of 0.8, 0.6, and 1.6 ng/ml, respectively. […] TNF-α levels in all collected CM were assayed by ELISA. Data are mean±s.e.m. from three or four independent experiments.
Murine macrophage-like RAW 264.7 cells and human monocyte THP-1 cells were obtained from ATCC (Manassas, Va.). […]

The target in a further experiment is TLR4 (Homo sapiens, UniProt O00206). The note with it: literature; read-out: KD, binding to TLR4; cited from earlier work.

Entries after “also recorded” stand apart in the source; their conditions may differ.

Chain of TLR4 (O00206 24-631 limits assumed, species assumed): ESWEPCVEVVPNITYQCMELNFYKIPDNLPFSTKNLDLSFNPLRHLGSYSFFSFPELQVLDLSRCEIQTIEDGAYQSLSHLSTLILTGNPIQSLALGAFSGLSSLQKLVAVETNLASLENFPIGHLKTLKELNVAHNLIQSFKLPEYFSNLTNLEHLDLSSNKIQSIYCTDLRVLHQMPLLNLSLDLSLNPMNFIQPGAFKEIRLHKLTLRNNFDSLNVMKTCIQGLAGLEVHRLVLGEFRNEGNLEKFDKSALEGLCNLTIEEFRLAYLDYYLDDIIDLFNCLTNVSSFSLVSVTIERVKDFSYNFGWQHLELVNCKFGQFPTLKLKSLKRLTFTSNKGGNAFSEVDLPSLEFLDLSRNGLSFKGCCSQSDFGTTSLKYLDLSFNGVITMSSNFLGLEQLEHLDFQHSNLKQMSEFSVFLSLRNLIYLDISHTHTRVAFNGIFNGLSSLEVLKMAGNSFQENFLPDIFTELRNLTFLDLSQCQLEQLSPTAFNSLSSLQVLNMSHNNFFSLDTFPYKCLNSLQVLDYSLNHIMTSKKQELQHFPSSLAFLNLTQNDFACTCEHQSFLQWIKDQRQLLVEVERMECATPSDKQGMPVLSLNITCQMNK

With “GGRGRGRGFSRGGGD (fragment of CIRP) [C22, 15-mer oligopeptide derived from human CIRP]”, in the experiment with rhMD2, the “binding affinity of 15-mer oligopeptides to rhMD2 (in words)” value (from here on “binding affinity of 15-mer oligopeptides”) was “high affinity”. Moreover, in experiment [1], the “effect on LPS-induced TNF-α release in THP-1 cells (in words)” value (“effect on LPS-induced TNF-α release” for short) was “inhibit”.

On to “GRGFSRGGGDRGYGG (fragment of CIRP) [C23, 15-mer oligopeptide derived from human CIRP]”, for which, in the experiment with rhMD2, the “binding affinity of 15-mer oligopeptides” value is on record as “high affinity; also recorded: highest affinity”. Also, in experiment [1], the “effect on LPS-induced TNF-α release” value is recorded as “inhibit”. Further, in experiment [2] (4 hours, Western blot), the “ICAM-1 expression in MLVEC” value is “abrogated”. The “release of IL-1beta by MLVEC” value in experiment [2] (ELISA) is “blocked”. The “serum levels of TNF-α and IL-6” value in the experiment with mice subjected to CLP was “lower”. In addition, in the experiment with mice subjected to CLP (24 hours post-CLP), the “expression of E-selectin, ICAM-1, TNF-α and IL-1β in the lungs” value is listed as “significant decrease”. Moreover, the “survival (Kaplan-Meier, in words)” value in the experiment on septic mice (CLP) (8 mg/kg BW 2 hours after CLP, all vehicle mice died within 48 hours) is recorded as “some of C23-treated mice lived longer”. This molecule returned an average survival time with septic mice (CLP) (8 mg/kg BW via internal jugular vein 2 hours after CLP, with imipenem) of 44.2 h.

Consider “RGFFRGGRGRGRGFS (fragment of CIRP) [C21, 15-mer oligopeptide derived from human CIRP]”, for which, in the experiment with rhMD2, the “binding affinity of 15-mer oligopeptides” value is recorded as “high affinity”. In experiment [1], the “effect on LPS-induced TNF-α release” value was “does not suppress”.

B1: rmHMGB1: recombinant HMGB1 produced as in Yang et al. 2004 (protein, UniProt P63158 1-215, looked up)
High mobility group protein B1: MGKGDPKKPRGKMSSYAFFVQTCREEHKKKHPDASVNFSEFSKKCSERWKTMSAKEKGKFEDMAKADKARYEREMKTYIPPKGETKKKFKDPNAPKRPPSAFFLFCSEYRPKIKGEHPGLSIGDVAKKLGEMWNNTAADDKQPYEKKAAKLKEKYEKDIAAYRAKGKPDAAKKGVVKAEKSKKKKEEEDDEEDEEDEEEEEEEEDEDEEEDDDDE
Regarding B1, the “induced TNF-α levels” value with THP-1 cells amounted to 0.6 ng/mL.

B2: rhMD2: recombinant human MD2 (Glu17-Asn160) with 10-His tag, expressed from E. coli, R&D Systems (protein)
chain: EAQKQYWVCNSSDASISYTYCDKMQYPISINVNPCIELKRSKGLLHIFYIPRRDLKQLYFNLYITVNTMNLPKRKEVICRGSDDDYSFCRALKGETVNTTISFSFKGIKFSKGKYKCVVEAISGSPEEMLFCLEFVILHQPNSNHHHHHHHHHH
As usually defined, the Kd is the constant that tells how readily two partners part at equilibrium. B2: the Kd with TLR4 was 62.9 nM.
